Data on 2 substances can be found in article PMC7934871 (JCI Insight, 2021).

Non-standard residues stand in square brackets, D forms with d. No end group written: not given here. pY = N[C@@H](Cc1ccc(OP(=O)(O)O)cc1)C(=O)O

One test has as its system cancer cells. The test is described as follows: Confocal microscopy of peptide localisation. The format is cell-based. The conditions noted are these: 1 μM, 1 hour. On the procedure:
Figure 8 PS-Gp130 and PS-MYC blocking peptides efficiently internalize into tumor cells to exert their functions. (A) For 1 hour 1 μM of PS-conjugated MYC (PS-MYC) and Gp130 (PS-Gp130) were incubated with cancer cells. PS-scramble MYC (PS-SC-MYC) was used as a control for PS-MYC. The peptide uptake was visualized by confocal microscopy and quantified by flow cytometry. Data are representative of 3 independent experiments (n = 3). (B) Upper panel: The binding of PS-Gp130 and STAT3 was examined by immunoprecipitation and Western blotting. PO-Gp130 was used as a control. For 4 hours prior to harvest, 1 μM of peptide was incubated with cells. Lower panel: PS-Gp130 inhibits IL-6–induced phosphorylation of STAT3 and p44/42 but not EGF-mediated signaling. The cells were preincubated with PS-Gp130 for 2 hours and then stimulated with 20 ng/mL of IL-6 or 30 ng/mL of EGF for 30 minutes before harvest and Western blotting. (C) Gene expression of STAT3 targets was examined by quantitative PCR after the treatment with 1 μM of PS-Gp130 with or without IL-6 stimulation as described above. Data shown are 3 independent experiments (n = 3); SD is shown. Unpaired Student’s t test; ***P < 0.005; **P < 0.01; *P < 0.05. (D) A total of 1 μM of PS-SC-MYC or PS-MYC was incubated with cells for 48 hours before the gene expression of MYC targets was examined by quantitative PCR. […]

The next test has as its system HCT116 cells. The test can be described thus: Cell proliferation assay (CellTiter-Glo). The format is cell-based, human. The conditions noted are these: HCT116, 10 μg/mL (approximately 1 μM) every day, day 7, CellTiter-Glo. From the text:
Figure 3 PS-acet.-STAT3 peptide inhibits STAT3 activity and downregulates the expression of STAT3 targets. (A) Downregulation of STAT3 activity and its downstream target proteins shown in human HCT116 colorectal cancer cells by Western blotting (data represent 1 of the 3 experiments, n = 3). PO-acet.-STAT3 and PS-STAT3-K685R peptides were used in parallel as controls. (B) STAT3 inhibition regulated the expression of proliferation and apoptotic genes, assessed by real-time quantitative PCR. Data present mean ± SD, n = 3 independent experiments, 1-way ANOVA; ***P < 0.005; **P < 0.01. […] For p53 promoter assay, data represent 3 replicates in 3 independent experiments (n = 9). For cell proliferation assay, data represent 3 independent experiments. SD is shown (n = 3). One-way ANOVA; ***P < 0.005; **P < 0.01.
HCT116 cells were seeded in a 96-well plate at a density of 6000/well. Starting the following day, cells were treated every day with 10 μg/mL (approximately 1 μM) PO- or PS-peptides. On day 7, cell proliferation was measured based on ATP production using bioluminescence detection kit for ATP measurement (CellTiter-Glo, Promega), according to manufacturer’s instruction.

The target of another test is T1, STAT1 (Homo sapiens, UniProt P42224).
T1 construct: endogenous in cells; host or cells: U251
The test is described as follows: Immunoprecipitation and Western blotting, STAT1. It counts as binding. The conditions noted are these: immunoprecipitation, Western blotting, U251 cells. From the text:
Figure 2 PS-acet.-STAT3-peptide specifically binds STAT3 in the nucleus. (A) Penetration of PS-acet.-STAT3 peptide and its colocalization with STAT3 protein in U251 cells are confirmed by confocal microscopy. Scale bars: 50 μm. Insets: original magnification, ×40. (B) PS-acet.-STAT3 peptide specifically binds to STAT3 protein, not STAT1 and STAT5 proteins, shown in U251 cells by immunoprecipitation followed by Western blotting (left panel). Expression of total STAT1, STAT3, and STAT5 was confirmed by Western blotting in U251 cells (input protein level, right panel).
Whole cell lysates or tissue homogenates were prepared by using RIPA lysis buffer (50 mM Tris at pH 7.4, 150 mM NaCl, 1 mM EDTA, 0.5% NP-40, 1 mM NaF, 15% glycerol, and 20 mM β-glycerophosphate). […] Protein amounts were determined by BCA using a Thermo Fisher Scientific kit. […] The protein levels for STAT1 (sc-346, E-23), STAT3 (sc-482, C-20), STAT5 (sc-74442, A-9), Crm1 (exportin 1) (sc-5595, H-300), CAS (exportin 2) (sc-271537, H-2), exportin 5 (sc-66885, H-300), and exportin 7 (sc-98639, H-82) were determined using antibodies from Santa Cruz Biotechnology Inc. Anti–exportin 3 (exportin T, 630622, LOS1 05-1525), anti–exportin 4 (3499-1), and anti–exportin 6 (11408-1-AP) were from MilliporeSigma, Epitomics, and Proteintech, respectively. […]
(In western blotting, separated proteins are transferred to a membrane and probed.)

T1 sequence (P42224 whole entry): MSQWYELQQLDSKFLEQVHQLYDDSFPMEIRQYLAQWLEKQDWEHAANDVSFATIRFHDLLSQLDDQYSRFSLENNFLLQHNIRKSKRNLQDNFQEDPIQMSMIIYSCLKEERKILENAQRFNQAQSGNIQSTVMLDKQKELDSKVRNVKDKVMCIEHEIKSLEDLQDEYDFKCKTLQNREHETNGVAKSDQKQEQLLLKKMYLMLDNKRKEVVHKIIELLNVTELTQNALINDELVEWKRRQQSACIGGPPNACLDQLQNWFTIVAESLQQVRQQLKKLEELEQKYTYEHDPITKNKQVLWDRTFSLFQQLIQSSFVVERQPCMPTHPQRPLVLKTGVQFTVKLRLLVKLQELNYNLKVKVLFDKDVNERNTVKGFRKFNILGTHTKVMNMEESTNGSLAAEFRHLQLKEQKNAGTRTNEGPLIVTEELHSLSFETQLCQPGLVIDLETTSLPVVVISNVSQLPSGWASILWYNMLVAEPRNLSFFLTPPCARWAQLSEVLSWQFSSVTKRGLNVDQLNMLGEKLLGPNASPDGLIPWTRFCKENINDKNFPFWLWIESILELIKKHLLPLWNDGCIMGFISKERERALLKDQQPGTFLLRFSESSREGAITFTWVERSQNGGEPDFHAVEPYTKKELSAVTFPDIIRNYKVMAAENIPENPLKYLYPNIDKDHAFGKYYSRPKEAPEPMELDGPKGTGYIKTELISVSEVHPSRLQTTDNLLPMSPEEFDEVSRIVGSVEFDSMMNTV

On to “PS-Gp130: PS-conjugated Gp130 peptide (amino acids 901–910) with phospho-Tyr905 (MPKS[pY]LPQTV; also: phosphorothioate oligonucleotide conjugate; UniProt P40189 901-910, looked up, fragment)”, for which, in the test on cancer cells, the “intracellular localisation / retention of peptide” value is given as “detected in the cytoplasm or associated with the membrane”.

Regarding “PDIPKEEAFGK685(Ac)YCRPESQEHPC-linker-T*C*C*A*T*G*A*G*C*T*T*C*C*T*G*A*T*G*C*T [PS-acet.-STAT3 peptide]”, in the test on HCT116 cells, the cell proliferation entry is on record as “decrease”. At STAT1, the “binding to STAT1 protein” value is reported as “not”.
